In ChEMBL document CHEMBL5226367, “Synthesis, Optical Properties, and Antiproliferative Evaluation of NBD-Triterpene Fluorescent Probes” (J Nat Prod, 2023):
The source made the active and inactive calls. The calls are words filed in the database; no cut-off is given here.

Legend:
[1] = Drug localization in cytoplasm of human HT-29 cells assessed as green fluorescence at IC50 concentration incubated for 30 min to 24 hrs by DAPI staining based confocal microscopic analysis; type: ADME, subcellular; settings: time 30-1440 min
[2] = system: HT-29; assay: Cytotoxicity against human HT-29 cells assessed as decrease in cell density at IC50 concentration; type: functional, cell-based; settings: time 30-1440 min, TDE = time-dependent effect
[3] = system: B16-F10; assay: Potency index, ratio of oleanolic acid IC50 to test compound IC50 for cytotoxicity against mouse B16-F10 cells assessed as reduction in cell viability incubated for 72 hrs by MTT assay; type: functional
[4] = system: HepG2; assay: Cytotoxicity against human HepG2 cells assessed as decrease in cell density at IC50 concentration; type: functional, cell-based; settings: time 30-1440 min, TDE = time-dependent effect
[5] = system: HepG2; assay: Potency index, ratio of maslinic acid IC50 to test compound IC50 for cytotoxicity against human HepG2 cells assessed as reduction in cell viability incubated for 72 hrs by MTT assay; type: functional
[6] = system: HT-29; assay: Potency index, ratio of oleanolic acid IC50 to test compound IC50 for cytotoxicity against human HT-29 cells assessed as reduction in cell viability incubated for 72 hrs by MTT assay; type: functional
[7] = system: B16-F10; assay: Cytotoxicity against mouse B16-F10 cells assessed as decrease in cell density at IC50 concentration; type: functional, cell-based; settings: time 30-1440 min, TDE = time-dependent effect
[8] = system: HT-29; assay: Induction of apoptosis in human HT-29 cells at IC50 concentration incubated for 24 hrs by Annexin V-FITC/PI staining based flow cytometric analysis; type: functional, cell-based
[9] = system: HepG2; assay: Potency index, ratio of oleanolic acid IC50 to test compound IC50 for cytotoxicity against human HepG2 cells assessed as reduction in cell viability incubated for 72 hrs by MTT assay; type: functional
[10] = system: B16-F10; assay: Potency index, ratio of maslinic acid IC50 to test compound IC50 for cytotoxicity against mouse B16-F10 cells assessed as reduction in cell viability incubated for 72 hrs by MTT assay; type: functional
[11] = Drug localization in cytoplasm of human HepG2 cells assessed as green fluorescence at IC50 concentration incubated for 30 min to 24 hrs by DAPI staining based confocal microscopic analysis; type: ADME, subcellular; settings: time 30-1440 min
[12] = system: B16-F10; assay: Induction of apoptosis in mouse B16-F10 cells at IC50 concentration incubated for 24 hrs by Annexin V-FITC/PI staining based flow cytometric analysis; type: functional, cell-based
[13] = Drug localization in cytoplasm of mouse B16-F10 cells assessed as green fluorescence at IC50 concentration incubated for 30 min to 24 hrs by DAPI staining based confocal microscopic analysis; type: ADME, subcellular; settings: time 30-1440 min
[14] = system: HT-29; assay: Potency index, ratio of maslinic acid IC50 to test compound IC50 for cytotoxicity against human HT-29 cells assessed as reduction in cell viability incubated for 72 hrs by MTT assay; type: functional
[15] = system: HepG2; assay: Induction of apoptosis in human HepG2 cells at IC50 concentration incubated for 24 hrs by Annexin V-FITC/PI staining based flow cytometric analysis; type: functional, cell-based
[16] = system: B16-F10; assay: Induction of apoptosis in mouse B16-F10 cells assessed as total apoptotic cells at IC50 concentration incubated for 72 hrs by Annexin V-FITC/PI staining based flow cytometric analysis relative to control; type: functional
[17] = system: HepG2; assay: Induction of apoptosis in human HepG2 cells assessed as total apoptotic cells at IC50 concentration incubated for 72 hrs by Annexin V-FITC/PI staining based flow cytometric analysis relative to control; type: functional
[18] = system: HT-29; assay: Induction of apoptosis in human HT-29 cells assessed as total apoptotic cells at IC50 concentration incubated for 72 hrs by Annexin V-FITC/PI staining based flow cytometric analysis relative to control; type: functional

SMILES | Drug uptake [1] | Activity [2] | Ratio IC50 [3] | Activity [4] | Ratio IC50 [5] | Ratio IC50 [6] | Activity [7] | Activity [8] | Ratio IC50 [9] | Ratio IC50 [10] | Drug uptake [11] | Activity [12] | Drug uptake [13] | Ratio IC50 [14] | Activity [15] | Activity [16] | Activity [17] | Activity [18]
CC1(C)CC[C@]2(C(=O)O)CC[C@]3(C)C(=CC[C@@H]4[C@@]5(C)C[C@@H](OC(=O)CCCCCNc6ccc([N+](=O)[O-])c7nonc67)[C@H](O)C(C)(C)[C@@H]5CC[C@]43C)[C@@H]2C1 | Active | Tde | 22 | Tde | 7.1 | 65 | Tde | Active | 15 | 7.4 | Active | Active | Active | 5 | Active |  |  | 
CC1(C)CC[C@]2(C(=O)O)CC[C@]3(C)C(=CC[C@@H]4[C@@]5(C)CC[C@H](OC(=O)CCCCCNc6ccc([N+](=O)[O-])c7nonc67)C(C)(C)[C@@H]5CC[C@]43C)[C@@H]2C1 | Active | Tde | 44 | Tde | 7.9 | 22 | Tde | Active | 17 | 15 | Active | Active | Active | 1.7 | Active | 31% | 31% | 31%
